Results on ten substances are retold here after patent US11214803B2, “Modulators of YAP1 expression” (Ionis Pharmaceuticals, Inc., priority 2019, dated 2022).

pIC50: −log10 of the molar value. Strand notation (5' to 3'): a small letter for the sugar, then the base; units joined by * are phosphorothioate-linked, units joined directly phosphodiester-linked; [ ] holds rarer units or linkages, { } end groups; capitals alone tell only the bases. e = 2'-O-(2-methoxyethyl) (MOE); k = constrained ethyl (cEt); [5mC] = 5-methylcytosine; d = 2'-deoxy (DNA)

The data set has as its system Yap1 mRNA. Nature of the data set: Dose-dependent inhibition of human Yap1 in SNU-449 cells (Example 9, RTS36584). Conditions: free uptake; for % UTC (Yap1 mRNA): approximately 48 hours; for pIC50: linear regression on a log/linear plot. The format is cell-based. On the procedure:
Modified oligonucleotides described in the studies above were tested at various doses in SNU-449 cells. Cultured SNU-449 cells at a density of 10,000 cells per well were treated using free uptake with modified oligonucleotides diluted to concentrations described in the tables below. After approximately 48 hours, Yap1 mRNA levels were measured as previously described using the Human Yap1 primer-probe set RTS36584. Yap1 mRNA levels were normalized to total RNA content, as measured by RIBOGREEN®. Results are presented in the tables below as percent control of the amount of Yap1 mRNA relative to untreated control cells (% UTC). IC50s were calculated using a linear regression on a log/linear plot of the data in excel.

Broadly, the pIC50 is the negative decadic logarithm of the IC50, by convention in mol/L. Substance “1198285 (kA*kT*kT*dG*dT*d[5mC]*dT*d[5mC]*dA*dT*dG*d[5mC]*k[5mC]*eT*kT*eA; antisense) [compound 1198285]” showed a negative-log IC50 (pIC50) of 7.00. Moreover, where the note is “31.3 nM”, the “% UTC (Yap1 mRNA)” value was determined as 67 % UTC. The “% UTC (Yap1 mRNA)” value (125.0 nM) is listed as 41 % UTC. Moreover, the “% UTC (Yap1 mRNA)” value (500.0 nM) is given as 16 % UTC. In addition, for the setting “2000.00 nM”, the “% UTC (Yap1 mRNA)” value was 5 % UTC.

The substance “1198286 (kA*kA*kT*dT*dG*dT*d[5mC]*dT*d[5mC]*dA*dT*dG*k[5mC]*e[5mC]*kT*eT; antisense) [compound 1198286]” had a pIC50 of 7.00. In addition, the “% UTC (Yap1 mRNA)” value (31.3 nM) is recorded as 64 % UTC. Also, the “% UTC (Yap1 mRNA)” value (125.0 nM) came out at 45 % UTC. Moreover, the “% UTC (Yap1 mRNA)” value (500.0 nM) stood at 22 % UTC. Moreover, for the setting “2000.00 nM”, the “% UTC (Yap1 mRNA)” value was found to be 8 % UTC.

For “1198287 (kA*kA*kA*dT*dT*dG*dT*d[5mC]*dT*d[5mC]*dA*dT*kG*e[5mC]*k[5mC]*eT; antisense) [compound 1198287]”, the negative-log IC50 (pIC50) is 6.52. Also, where the note is “31.3 nM”, the “% UTC (Yap1 mRNA)” value worked out at 95 % UTC. Also, the “% UTC (Yap1 mRNA)” value (125.0 nM) worked out at 68 % UTC. Further, the “% UTC (Yap1 mRNA)” value (500.0 nM) stood at 36 % UTC. Moreover, for the setting “2000.00 nM”, the “% UTC (Yap1 mRNA)” value was found to be 16 % UTC.

Regarding “1198288 (kG*kA*kA*dA*dT*dT*dG*dT*d[5mC]*dT*d[5mC]*dA*kT*eG*k[5mC]*e[5mC]; antisense) [compound 1198288]”, the negative-log IC50 (pIC50) was 7.00. In addition, the “% UTC (Yap1 mRNA)” value (31.3 nM) is 77 % UTC. In addition, the “% UTC (Yap1 mRNA)” value (125.0 nM) was found to be 43 % UTC. For the same substance, the “% UTC (Yap1 mRNA)” value (500.0 nM) is 17 % UTC. Moreover, the “% UTC (Yap1 mRNA)” value (2000.00 nM) turned out to be 7 % UTC.

In turn, “1198289 (kG*kG*kA*dA*dA*dT*dT*dG*dT*d[5mC]*dT*d[5mC]*kA*eT*kG*e[5mC]; antisense) [compound 1198289]” had a negative-log IC50 (pIC50) of 7.00. For the setting “31.3 nM”, the “% UTC (Yap1 mRNA)” value is 72 % UTC. Further, the “% UTC (Yap1 mRNA)” value (125.0 nM) is listed as 41 % UTC. The “% UTC (Yap1 mRNA)” value (500.0 nM) was 18 % UTC. The “% UTC (Yap1 mRNA)” value (2000.00 nM) worked out at 9 % UTC.

“1198290 (kT*kG*kG*dA*dA*dA*dT*dT*dG*dT*d[5mC]*dT*k[5mC]*eA*kT*eG; antisense) [compound 1198290]” had a pIC50 of 7.00. Besides, the “% UTC (Yap1 mRNA)” value (31.3 nM) was 60 % UTC. The “% UTC (Yap1 mRNA)” value (125.0 nM) is listed as 39 % UTC. The “% UTC (Yap1 mRNA)” value (500.0 nM) is given as 20 % UTC. For the setting “2000.00 nM”, the “% UTC (Yap1 mRNA)” value amounted to 10 % UTC.

“1198294 (kA*kG*kA*dG*dT*dA*dT*dG*dT*dG*dG*d[5mC]*kA*eA*kT*eA; antisense) [compound 1198294]” had a negative logarithm of the IC50 (pIC50) of 7.30. Also, the “% UTC (Yap1 mRNA)” value (31.3 nM) stood at 59 % UTC. Besides, under “125.0 nM”, the “% UTC (Yap1 mRNA)” value is on record as 33 % UTC. Under “500.0 nM”, the “% UTC (Yap1 mRNA)” value stood at 14 % UTC. In addition, the “% UTC (Yap1 mRNA)” value (2000.00 nM) was determined as 5 % UTC.

“1198295 (kT*kA*kG*dA*dG*dT*dA*dT*dG*dT*dG*dG*k[5mC]*eA*kA*eT; antisense) [compound 1198295]” gave a pIC50 of 7.00. Besides, for the setting “31.3 nM”, the “% UTC (Yap1 mRNA)” value is reported as 82 % UTC. In addition, the “% UTC (Yap1 mRNA)” value (125.0 nM) was found to be 47 % UTC. Further, the “% UTC (Yap1 mRNA)” value (500.0 nM) was found to be 19 % UTC. In addition, the “% UTC (Yap1 mRNA)” value (2000.00 nM) came out at 8 % UTC.

For “1198297 (kA*kT*kT*dA*dG*dA*dG*dT*dA*dT*dG*dT*kG*eG*k[5mC]*eA) [compound 1198297]”, the negative-log IC50 (pIC50) is 7.00. In addition, where the note is “31.3 nM”, the “% UTC (Yap1 mRNA)” value worked out at 67 % UTC. For the setting “125.0 nM”, the “% UTC (Yap1 mRNA)” value came to 42 % UTC. Besides, the “% UTC (Yap1 mRNA)” value (500.0 nM) was determined as 16 % UTC. Further, for the setting “2000.00 nM”, the “% UTC (Yap1 mRNA)” value amounted to 7 % UTC.

In turn, “1198347 (kG*kT*kA*dA*dT*dA*dT*dT*dG*d[5mC]*dA*dA*kT*e[5mC]*kT*eG) [compound 1198347]” showed a pIC50 of 7.00. Further, the “% UTC (Yap1 mRNA)” value (31.3 nM) is recorded as 67 % UTC. Besides, the “% UTC (Yap1 mRNA)” value (125.0 nM) is 54 % UTC. In addition, the “% UTC (Yap1 mRNA)” value (500.0 nM) came to 24 % UTC. In addition, for the setting “2000.00 nM”, the “% UTC (Yap1 mRNA)” value is reported as 8 % UTC.
